Experimental data taken from US5677459A, “Methods for the preparation of modulators of acetylcholine receptors” (Sibia Neurosciences, Inc., priority 1995, dated 1997).
Structures can show the parent of a compound that is named as a salt. Where two headings read alike, the source gives them in different places.

Experiments:
[1] = molecular target: T1, nicotinic acetylcholine receptor (Rattus norvegicus, UniProt P09483+P12390); assay: ^3 H-Nicotine binding/displacement, rat cerebral membranes
T1 construct: the brains removed and the cerebral cortex dissected on ice; from tissue; host or cells: cerebral cortex synaptic membranes of male Sprague-Dawley rats
T1 sequence (P09483 31-630): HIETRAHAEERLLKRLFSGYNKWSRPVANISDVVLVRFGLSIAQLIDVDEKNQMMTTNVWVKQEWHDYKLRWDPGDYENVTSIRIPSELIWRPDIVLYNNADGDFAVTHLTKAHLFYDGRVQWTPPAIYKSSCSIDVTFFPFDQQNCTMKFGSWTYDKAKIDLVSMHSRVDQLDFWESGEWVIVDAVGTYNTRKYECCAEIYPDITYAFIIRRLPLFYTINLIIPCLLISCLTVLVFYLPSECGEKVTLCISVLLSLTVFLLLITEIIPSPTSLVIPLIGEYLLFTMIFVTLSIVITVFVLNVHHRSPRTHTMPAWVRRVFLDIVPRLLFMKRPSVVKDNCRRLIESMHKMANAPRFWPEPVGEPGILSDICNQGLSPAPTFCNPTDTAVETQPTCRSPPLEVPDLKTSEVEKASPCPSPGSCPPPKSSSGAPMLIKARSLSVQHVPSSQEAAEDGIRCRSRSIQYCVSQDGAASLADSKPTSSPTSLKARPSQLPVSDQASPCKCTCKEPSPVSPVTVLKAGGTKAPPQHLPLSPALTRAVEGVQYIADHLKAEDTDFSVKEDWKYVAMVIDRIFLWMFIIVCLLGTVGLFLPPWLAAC
T1 sequence (P12390 25-500): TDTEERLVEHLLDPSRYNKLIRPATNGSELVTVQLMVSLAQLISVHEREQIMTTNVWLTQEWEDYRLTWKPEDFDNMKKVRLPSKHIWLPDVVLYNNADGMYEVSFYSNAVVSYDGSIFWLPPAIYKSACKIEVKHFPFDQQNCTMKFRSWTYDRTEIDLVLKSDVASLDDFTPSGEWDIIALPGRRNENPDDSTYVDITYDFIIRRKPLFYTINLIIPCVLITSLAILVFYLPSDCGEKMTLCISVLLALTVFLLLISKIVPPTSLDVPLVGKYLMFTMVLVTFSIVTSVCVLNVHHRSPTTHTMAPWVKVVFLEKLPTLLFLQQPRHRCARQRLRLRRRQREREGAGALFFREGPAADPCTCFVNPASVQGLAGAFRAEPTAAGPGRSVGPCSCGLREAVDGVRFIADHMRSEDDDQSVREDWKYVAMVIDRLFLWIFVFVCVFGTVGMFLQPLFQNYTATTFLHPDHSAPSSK
Procedure: ^3 H-Nicotine binding to rat cerebral membranes was performed according to modifications of the method of Flyn and Mash (J. Neurochem. 47:1948 (1986)). ^3 H-Nicotine (80 ci/mmol; New England Nuclear Corporation, Boston, Mass.) was used as the ligand for nicotinic acetylcholine receptor binding assays. All other reagents were purchased from the Sigma Chemical Co. (St. Louis, Mo.).
Male Sprague-Dawley rats (250-400 gm) were sacrificed by decapitation, the brains removed and the cerebral cortex dissected on ice. Synaptic membranes were prepared by homogenizing the cortical tissue in 20 volumes of ice-cold modified Tris buffer (50 mM Tris pH 7.4, 120 mM NaCl, 5 mM KCl, 2 mM EDTA, 1 mM PMSF) with a polytron (20 sec at setting 5-6) followed by centrifugation (15 min at 5,000×g) at 4° C. The resultant pellet was rehomogenized and centrifuged twice. The final pellet was resuspended in ice-cold assay buffer (50 mM Tris pH 7.4, 120 mM NaCl, 5 mM KCl, 2 mM CaCl2, 1 mM MgCl2) at a concentration of membrane equivalent to 1 gm wet weight cortex per 10 ml buffer. After protein determination the final membrane preparation was diluted with buffer to 3 mg protein/mi. This membrane preparation was used in either the fresh state or frozen (-70° C.) then thawed.
The binding assay is performed manually using 96-well plates, or using a Biomek automated work station (Beckman Instrument Co.). ^3 H-Nicotine was diluted in assay buffer to give a final concentration of 1.9 nM. The Biomek automated work station was programmed to automatically transfer 750 μl of assay buffer with ^3 H-nicotine, 230 μl of membrane preparation and 20 μl of solution containing the compound of interest in assay buffer, DMSO, ethanol:DMSO (1:1) or appropriate vehicle to the 96-well plate. Atropine was added to the incubation buffer at a final concentration of 3 μM to block binding to muscarinic acetylcholine receptor sites. The plates were maintained on ice for 60 min and the tissue-bound radioactivity was separated from the free by rapid filtration in a Brandel Harvester onto GF/C filters presoaked in 0.5% polyethyleneimine for at least 2 hr. The filters were washed with 4×2 ml of ice-cold assay buffer and filters were transferred to vials to which 4 ml of scintillation cocktail was added. The radioactivity was measured in a LS-6500 Beckman Liquid Scintillation Counter in an autodpm mode. Data were analyzed bylog-logit transformation or non-linear regression analysis (e.g., employing GraphPad Prism, available from GraphPad Software, San Diego, Calif.) to give IC50 values. Non-specific binding was defined by 10 μM cytisine.

[2] = molecular target: muscarinic acetylcholine receptors; assay: ^3 H-QNB (quinuclidinyl benzilate) binding/displacement, rat cerebral membranes
[3] = test system: ^3 H-Dopamine release, rat striatal slices; assay: Ligand-stimulated ^3 H-dopamine release from rat striatal slices; assay type: cell-based; details: for Emax at 300 µM: Rattus norvegicus, read-out: % of Nicotine Response, ^3 H-Dopamine, Striatum
Procedure: (§1) Measurement of ^3 H-dopamine release from rat striatal slices was performed according to the method of Sacaan et al. (J. Neurochem. 59:245 (1992)). Male Sprague-Dawley rats (250-300 g) were decapitated and the striata or olfactory tubercles dissected quickly on a cold glass surface. The tissue was chopped to a thickness of 300 μm with a McIlwain tissue chopper. After chopping again at right angles the tissue was dispersed and incubated for 10 min. at 37° C. in oxygenated Kreb's buffer. ^3 H-Dopamine (40 Ci/mmol, NEN- Dupont, Boston, Mass.) was added (50 nM) and the tissue was incubated for 30 min. in Kreb's buffer containing 10 μM pargyline and 0.5 mM ascorbic acid. Aliquots of the minced tissue were then transferred to chambers of a Brandel Superfusion system in which the tissue was supported on Whatman GF/B filter discs. The tissue was then superfused with buffer at a constant flow rate of 0.3 ml/min by means of a Brandel peristaltic pump. The perfusate was collected in plastic scintillation vials in 3-min fractions, and the radioactivity was estimated by scintillation spectrophotometry. The superfusate for the first 120 min was discarded. After two baseline fractions had been collected, the superfusion buffer was switched to fresh buffer with or without compound of interest. At the end of the experiment the filter and the tissue were removed, and the radiolabeled neurotransmitter content was estimated after extraction into scintillation fluid. The fractional efflux of radiolabeled neurotransmitter was estimated as the amount of radioactivity in the perfusate fraction relative to the total amount in the tissue.
(§2) Results of studies of the effects of an invention compound (as compared to the effect of nicotine) on the release of neurotransmitters from rat brain slices are presented in Table II. Results presented in Part A of the Table are expressed as the percent fractional release and results presented in Part B of the Table are expressed as a percentage, relative to nicotine response.

[4] = test system: ^3 H-Norepinephrine release, rat hippocampus slices; assay: Ligand-stimulated ^3 H-norepinephrine release from rat hippocampus slices; assay type: cell-based; details: for Emax at 300 µM: Rattus norvegicus, nicotine 300 μM = 100, read-out: % of Nicotine Response, ^3 H-Norepinephrine, Hippocampus; for % of Nicotine Response, ^3 H-Norepinephrine, Hippocampus: nicotine 300 μM = 100
Procedure: as §1
(§3) Following essentially the same procedure as set forth above, the amount of ^3 H-norepinephrine released from rat hippocampus, thalamus and prefrontal cortex slices superfused with buffer containing (or lacking) compounds of interest was also measured.
as §2

[5] = test system: ^3 H-Norepinephrine release, rat thalamus slices; assay: Ligand-stimulated ^3 H-norepinephrine release from rat thalamus slices; assay type: cell-based; details: in vitro slices, 300 μM
Procedure: as §1, §3, §2

[6] = test system: ^3 H-Dopamine release, rat olfactory tubercles; assay: Ligand-stimulated ^3 H-dopamine release from rat olfactory tubercles; assay type: cell-based; details: in vitro slices, 300 μM
Procedure: as §1, §2

rats = assay: Locomotor activity assay; assay type: in vivo, rat (male Sprague-Dawley); details: Rattus norvegicus, sc, 20 mg/kg, s.c.
Procedure: This assay can be used to assess the primary effect of a compound on general motor activity. A decrease in locomotor activity is indicative of a possible sedative effect on the animal, whereas an increase in locomotor activity is indicative of a stimulant effect on the animal.
Locomotor activity of rats (male Sprague-Dawley (Harlan) weighing 200-250 gm) was measured for 2 hrs in photocell cages immediately after administration of the invention compound. Prior to the test day, the animals were placed in the activity cages for 3 hrs to familiarize them with the experimental environment. On the test day, the animals were placed in the photocell cages and then injected with compound 1.5 hrs later.
The photocell cages were standard rodent cages (30 cm×20 cm×40 cm) with four infrared beams crossing the long axis. The animals were under no motivational constraints and were free to move around. Movements from one infrared beam to another (ambulation) were called "crossover"; successive interruptions of the same beam (vertical and other movements such as grooming) were called "general activity."

[7] = ^3 H-nicotine 1.9 nM, rat cerebral membranes, read-out: IC50, Nicotine
[8] = ^3 H-QNB 60 pM, rat cerebral membranes
[9] = compounds at 300 μM, nicotine 10 μM = 100

CN1CCCC1c1cncc(C#CC(C)(C)O)c1 (stereo not shown)
IC50 [1, 7]: 0.038 µM | IC50 [2, 8]: > 100 µM | Emax at 300 µM [3, 9]: 118% | Emax at 300 µM [4]: 18.3%

C#Cc1cncc(C2CCCN2C)c1 (single isomer, unassigned) [5-Ethynyl-3-(1-methyl-2-pyrrolidinyl)pyridine di-p-toluoyl-L-tartrate]
IC50 ([1]; IC50, Nicotine): 0.0026 µM | Emax at 300 µM ([3]; compound at 300 μM, Nicotine concentration was 300 μM): 155%

C#Cc1cncc(C2CCCN2C)c1 (single isomer, unassigned) [5-ethynyl-3-(1-methyl-2-pyrrolidinyl)pyridine di-p-toluoyl-D-tartrate]
IC50 ([1]; IC50, Nicotine): 0.078 µM | Emax at 300 µM [3, 9]: 33%

C#Cc1cncc(C2CCCN2C)c1 (single isomer, unassigned) [R^5 = 5-(1-ethynyl) Di-p-toluoyl-D-tartrate] [5-ethynyl-3-(1-methyl-2-pyrrolidinyl)pyridine di-p-toluoyl-D-tartrate]
IC50 [2, 8]: 4.7 µM | % of Nicotine Response, ^3 H-Norepinephrine, Hippocampus ([4]; 300 μM): 3.7%

C#Cc1cncc(C2CCCN2C)c1 (single isomer, unassigned) [R^5 = 5-(1-ethynyl) Di-p-toluoyl-L-tartrate] [5-Ethynyl-3-(1-methyl-2-pyrrolidinyl)pyridine di-p-toluoyl-L-tartrate]
% of Nicotine Response, ^3 H-Norepinephrine, Hippocampus ([4]; 300 μM): 17.4%

Fc1ccc(-c2cncc(C3CCCCN3)c2)cc1 (stereo not shown) [5-(4-Fluorophenyl)-3-(2-piperidinyl)pyridine fumarate]
IC50 [1, 7]: 0.49 µM | IC50 [2, 8]: 24.9 µM

C#Cc1cncc(C2CCC(=O)N2C)c1 (stereo not shown) [A = C(O); R^7 = CH3; R^5 = 5-(1-ethynyl), 5-Ethynyl-3-(1-methyl-5-pyrrolidin-2-onyl)pyridine]
IC50 [1, 7]: > 100 µM | IC50 [2, 8]: > 100 µM

Cc1ccc(-c2cncc(C3CCCN3C)c2)cc1.O=C(O)/C=C/C(=O)O (stereo not shown) [R^5 = 4-methylphenyl, 5-(4-Methylphenyl)-3-(1-methyl-2-pyrrolidinyl)pyridine fumarate]
IC50 [1, 7]: 0.031 µM | IC50 [2, 8]: 14 µM | percent fractional release, ^3 H-Dopamine, Striatum ([3]; in vitro slices, 300 μM): 0.74% | percent fractional release, ^3 H-Norepinephrine, Hippocampus ([4]; in vitro slices, 300 μM): 0.52% | percent fractional release, ^3 H-Norepinephrine, Thalamus [5]: 0.31% | percent fractional release, ^3 H-Dopamine, Olfactory Tubercles [6]: 1.0%

CN(C)CC#Cc1cncc(C2CCCN2C)c1 (stereo not shown) [R^5 = 5-(1-dimethylamino-2-propynyl), 5-[3-(1-Dimethylamino-2-propynyl)]-3-(1-methyl-2-pyrrolidinyl)pyridine fumarate]
IC50 [1, 7]: 0.025 µM | IC50 [2, 8]: 100 µM | Emax at 300 µM [3, 9]: 235%

CN1CCCC1c1cncc(C#CCO)c1 (stereo not shown) [R^5 = 5-(1-hydroxy-2-propynyl)]
IC50 [1, 7]: 0.0036 µM | IC50 [2, 8]: > 100 µM | Emax at 300 µM [3, 9]: 157% | Emax at 300 µM [4]: 39%

CN1CCCC1c1cncc(C#CCCO)c1 (stereo not shown) [R^5 = 5-(1-hydroxy-3-butynyl)]
IC50 [1, 7]: 0.006 µM | IC50 [2, 8]: > 100 µM | Emax at 300 µM [3, 9]: 100% | Emax at 300 µM [4]: 36.3%

COCC#Cc1cncc(C2CCCN2C)c1 (stereo not shown) [R^5 = 5-(1-methoxy-2-propynyl), 5-[3-(1-Methoxy-2-propynyl)]-3-(1-methyl-2-pyrrolidinyl)pyridine fumarate]
IC50 [1, 7]: 0.0026 µM | IC50 [2, 8]: > 100 µM | Emax at 300 µM [3, 9]: 61.7% | Emax at 300 µM [4]: 7.4%

CCCC#Cc1cncc(C2CCCN2C)c1 (stereo not shown) [R^5 = 5-(1-pentynyl), 5-[1-(1-Pentynyl)]-3-(1-methyl-2-pyrrolidinyl)pyridine fumarate]
IC50 [1, 7]: 0.0042 µM | IC50 [2, 8]: 39 µM | Emax at 300 µM [3, 9]: 27.7%

CC#Cc1cncc(C2CCCN2C)c1 (stereo not shown) [R^5 = 5-(1-propynyl), 5-[1-(1-Propynyl)]-3-(1-methyl-2-pyrrolidinyl)pyridine fumarate]
IC50 [1, 7]: 0.029 µM | IC50 [2, 8]: > 100 µM

CC(O)C#Cc1cncc(C2CCCN2C)c1 (stereo not shown) [R^5 = 5-(2-hydroxy-3-butynyl), 5-[4-(2-Hydroxy-3-butynyl)]-3-(1-methyl-2-pyrrolidinyl)pyridine fumarate]
IC50 [1, 7]: 0.011 µM | IC50 [2, 8]: > 100 µM | Emax at 300 µM [3, 9]: 98% | Emax at 300 µM [4]: 30.5%

CN1CCCC1c1cncc(C#CCCCCCCC#Cc2cncc(C3CCCN3C)c2)c1 (stereo not shown) [R^5 = See below*, 1,10-Bis-5-[3-(1-methyl-2-pyrrolidinyl)pyridine]-deca-1,9-diyne fumarate]
IC50 ([1]; IC50, Nicotine, ^3 H-nicotine 1.9 nM, rat cerebral membranes): 0.0052 µM | IC50 [2]: 7.5 µM

CN1CCCC1c1cncc(C#Cc2ccccc2)c1 (stereo not shown) [R^5 = phenylethynyl, 5-Phenylethynyl-3-(1-methyl-2-pyrrolidinyl)pyridine fumarate]
change in vivo at 20 mg/kg (rats; 1 h, 0-60 min, read-out: Ambulation (cross overs), percent of change from control): 7% | change in vivo at 20 mg/kg (rats; 1 h, 0-60 min, read-out: General Activity (beam breaks), percent of change from control): 3% | change in vivo at 20 mg/kg (rats; 2 h, 60-120 min, read-out: Ambulation (cross overs), percent of change from control): -16% | change in vivo at 20 mg/kg (rats; 2 h, 60-120 min, read-out: General Activity (beam breaks), percent of change from control): -11%

C#Cc1cncc(C2CCCN2)c1 (stereo not shown) [R^7 = H; R^5 = 5-(1-ethynyl), 5-Ethynyl-3-(1-H-2-pyrrolidinyl)pyridine fumarate]
IC50 [1, 7]: 0.058 µM | IC50 [2, 8]: 8.9 µM | Emax at 300 µM [3, 9]: 61.7% | Emax at 300 µM [4]: 13.4%
